Marks after values point to notes of the source that are not given here.
Key:
[1] = test system: Caliciviruses, such as feline calicivirus (FCV); details: photochemical inactivation, Irsch et al. 2011; cited from earlier work
[2] = Stability of S-59 in InterSol PAS under ambient light (HPLC); format: physicochemical; details: for S-59 UV peak area (HPLC) / S-59 concentration (HPLC): 230 μM in InterSol PAS, room temp
Experimental: Initial studies evaluated stability of the pathogen inactivation compound amotosalen (S-59) that was formulated in a platelet additive solution (PAS). A 230 μM solution of psoralen compound S-59 (Irsch et al., Transfus Med Hemother, 38: 19-31 (2011)) was prepared in the commercially available PAS solution InterSol® (Fenwal Inc.) and maintained at room temperature under ambient light conditions. HPLC analysis was performed on samples at times listed in Table 1 for both S-59 and photoproducts. […] S-59 data are shown as both concentration (μM), as well as peak area (S-59 UV) for relative comparison to any photoproducts detected with HPLC (Table 1). Peak D and Peak E photoproducts also were observed by 22 hr and 72 hr, respectively, as well as process impurity decomposition product 4′-HMT, with peak area values indicated (Table 1).

calicivirus FCV = assay: FCV inactivation with 150 μM S-59 after pre-incubation in PAS/Plasma, plaque assay; format: cell-based, feline calicivirus (FCV); details: for Normalized FCV Log Inactivation/mL / FCV Log Inactivation/mL / FCV Titer, 3J TEST: S-59 ~150 μM, UVA ~3 J/cm^2; for Normalized FCV Log Inactivation/mL: normalized to the FCV pool titer; for FCV Log Inactivation/mL: vs 0J control of same time; for FCV Titer, 3J TEST: platelets in PAS/Plasma 65%/35%
Experimental: From the results of Examples 1 and 2, showing that amotosalen is stable in PAS and PAS/Plasma, an additional study was performed that evaluated the level of inactivation of the calicivirus FCV with S-59 after extended incubation in PAS/Plasma. In this study, platelets in PAS/Plasma (65%/35%) were pooled to approximately 1320 mL, with approximately 16×10^11 total platelets, and spiked with a stock of the calicivirus FCV at a 1:100 dilution. A sample was taken from the FCV-spiked platelet pool to determine initial titer. The FCV-spiked platelets were then split into 5 units, at approximately 260 mL each, with approximately 3.2×10^11 platelets per unit. Each unit was dosed with S-59 at approximately 150 μM concentration, which is the concentration used commercially in the INTERCEPT® Blood System for pathogen inactivation treatment. Following the addition of S-59, the platelet units were incubated for 0, 2, 4, 8 or 24 hr. A control sample was taken at each time point for virus titer determination and HPLC analysis of S-59 concentration pre-UVA treatment, followed by UVA light exposure at ˜3 J/cm^2 to complete the photochemical treatment process for all test samples. Following UVA treatment, the control and test samples were evaluated for inactivation of FCV using a standard virological plaque assay.

[3] = Stability and photoconversion of S-59 in 65% PAS/35% plasma with platelets (HPLC); format: physicochemical; details: for S-59 UV peak area (HPLC) / S-59 concentration (HPLC): 150 μM in 65% InterSol PAS/35% plasma with platelets
Experimental: A further study evaluated stability and photoconversion of amotosalen (S-59) in PAS with added plasma, and also containing platelets. S-59 was added at a concentration of 150 μM to 65% InterSol® PAS and 35% plasma a suspended preparation of platelets, and the admixture maintained in a platelet incubator during the study time course. Samples were removed for HPLC analysis at times 0, 5, 21, 29 and 48 hours, and the mixture was then treated with ˜3 J of UVA light at 55 hours with a post-UVA sample also analyzed by HPLC for both S-59 and photoproducts. […] Peak D and Peak E photoproducts were not detected (Table 3).

[4] = Stability and photoconversion of S-59 in PAS/plasma with platelets and bacteria (HPLC); format: physicochemical; details: for % S-59 conversion: after UVA
Experimental: Another study evaluated 24 hour stability and photoconversion of amotosalen (S-59) in PAS with plasma and platelets, in the presence of bacteria. Two ABO matched platelet units in 100% plasma were pooled, split into two units and InterSol® PAS added (e.g., 65/35). S-59 was added to the test unit at a concentration of 150 but not initially to the control unit. A log culture of K. pneumoniae (˜8 log cfu/mL) was added to the units at a target of ˜60 CFU/unit and the units were incubated in a platelets shaker at 22° C. for approximately 24 hours. At the end of incubation, S-59 was also added to the control unit at the same concentration and both control and test units were subjected to UVA light. Samples were taken pre- and post-UVA illumination for both units bacterial titer assay and HPLC. Post-illumination both units were subjected to a CAD processing step to remove residual amotosalen and photoproducts and stored on a platelet shaker for 7 days to confirm no growth of bacteria.

Cc1oc2c(C)c3oc(=O)cc(C)c3cc2c1COCCN [S-59, 3-(2-aminoethoxymethyl)-2,5,9-trimethylfuro[3,2-g]chromen-7-one]
log10 reduction in titer [1]: 1.7-2.4 log10
S-59 UV peak area (HPLC) ([2]; 5 hr): 3593.309
S-59 concentration (HPLC) ([2]; 5 hr): 230.62 µM
S-59 UV peak area (HPLC) ([2]; 6 hr): 3575.825
S-59 concentration (HPLC) ([2]; 6 hr): 229.50 µM
S-59 UV peak area (HPLC) ([2]; 22 hr): 3485.467
S-59 concentration (HPLC) ([2]; 22 hr): 223.71 µM
S-59 UV peak area (HPLC) ([2]; 30 hr): 3529.854
S-59 concentration (HPLC) ([2]; 30 hr): 226.56 µM
S-59 UV peak area (HPLC) ([2]; 47 hr): 3486.293
S-59 concentration (HPLC) ([2]; 47 hr): 223.76 µM
S-59 UV peak area (HPLC) ([2]; 56 hr): 3440.455
S-59 concentration (HPLC) ([2]; 56 hr): 220.82 µM
S-59 UV peak area (HPLC) ([2]; 72 hr): 3534.894
S-59 concentration (HPLC) ([2]; 72 hr): 226.88 µM
S-59 UV peak area (HPLC) ([2]; 78 hr): 3485.093
S-59 concentration (HPLC) ([2]; 78 hr): 223.69 µM
S-59 UV peak area (HPLC) ([2]; T 0): 3700.439
S-59 concentration (HPLC) ([2]; T 0): 237.49 µM
loss of S-59 ([2]; InterSol PAS, at 78 hours): < 6%
level of FCV inactivation (calicivirus FCV; S-59/PAS/Plasma incubated 2 or more hours prior to UVA exposure): below the limit of detection
Normalized FCV Log Inactivation/mL (calicivirus FCV; pre-incubation T = 0 hr): 1.4 Log/mL
FCV Log Inactivation/mL (calicivirus FCV; pre-incubation T = 0 hr): 1.2 Log/mL
Normalized FCV Log Inactivation/mL (calicivirus FCV; pre-incubation T = 2 hr): >5.8 Log/mL
FCV Log Inactivation/mL (calicivirus FCV; pre-incubation T = 2 hr): >5.4 Log/mL
Normalized FCV Log Inactivation/mL (calicivirus FCV; pre-incubation T = 4 hr): >5.8 Log/mL
FCV Log Inactivation/mL (calicivirus FCV; pre-incubation T = 4 hr): >5.7 Log/mL
Normalized FCV Log Inactivation/mL (calicivirus FCV; pre-incubation T = 8 hr): >5.8 Log/mL
FCV Log Inactivation/mL (calicivirus FCV; pre-incubation T = 8 hr): >5.2 Log/mL
Normalized FCV Log Inactivation/mL (calicivirus FCV; pre-incubation T = 24 hr): >5.8 Log/mL
FCV Log Inactivation/mL (calicivirus FCV; pre-incubation T = 24 hr): >5.1 Log/mL
FCV Titer, 3J TEST (calicivirus FCV; pre-incubation T = 0 hr): 4.6 Log PFU/mL
FCV Titer, 3J TEST (calicivirus FCV; pre-incubation T = 2 hr): <0.22* Log PFU/mL
FCV Titer, 3J TEST (calicivirus FCV; pre-incubation T = 4 hr): <0.22* Log PFU/mL
FCV Titer, 3J TEST (calicivirus FCV; pre-incubation T = 8 hr): <0.22* Log PFU/mL
FCV Titer, 3J TEST (calicivirus FCV; pre-incubation T = 24 hr): <0.22* Log PFU/mL
S-59 UV peak area (HPLC) ([3]; platelet incubator, 5 hr): 1738.331
S-59 concentration (HPLC) ([3]; platelet incubator, 5 hr): 149.30 µM
S-59 UV peak area (HPLC) ([3]; platelet incubator, 21 hr): 1739.214
S-59 concentration (HPLC) ([3]; platelet incubator, 21 hr): 147.81 µM
S-59 UV peak area (HPLC) ([3]; platelet incubator, 29 hr): 1725.882
S-59 concentration (HPLC) ([3]; platelet incubator, 29 hr): 148.04 µM
S-59 UV peak area (HPLC) ([3]; platelet incubator, 48 hr): 1750.513
S-59 concentration (HPLC) ([3]; platelet incubator, 48 hr): 148.06 µM
S-59 UV peak area (HPLC) ([3]; platelet incubator, T 0): 1752.513
S-59 concentration (HPLC) ([3]; platelet incubator, T 0): 148.12 µM
S-59 UV peak area (HPLC) ([3]; 55 hr post-UVA (~3 J UVA)): 274.897
S-59 concentration (HPLC) ([3]; 55 hr post-UVA (~3 J UVA)): 22.71 µM
S-59 remaining in the post-UVA samples ([3]; 150 μM, 55 hour incubation in PAS/plasma with platelets, then ~3 J UVA): 15.3%
loss of S-59 ([3]; PAS/plasma/platelets admixture, prior to the UVA treatment at 55 hours): no loss
S-59 concentration stability ([4]; 24 hour incubation period, control and test units, with K. pneumoniae): stable
S-59 concentration ([4]; Control unit (S-59 added at end of ~24 h incubation), platelets + K. pneumoniae, T_24h, Avg.): 149 µM
S-59 concentration ([4]; Control unit (S-59 added at end of ~24 h incubation), T_24h, Replicate 1): 144 µM
S-59 concentration ([4]; Control unit (S-59 added at end of ~24 h incubation), T_24h, Replicate 2): 153 µM
S-59 concentration ([4]; Control unit (S-59 added at end of ~24 h incubation), T_Post-UVA, Avg.): 40 µM
S-59 concentration ([4]; Control unit (S-59 added at end of ~24 h incubation), T_Post-UVA, Replicate 1): 43 µM
S-59 concentration ([4]; Control unit (S-59 added at end of ~24 h incubation), T_Post-UVA, Replicate 2): 37 µM
% S-59 conversion ([4]; Control unit (S-59 added at end of ~24 h incubation), Avg.): 27%
% S-59 conversion ([4]; Control unit (S-59 added at end of ~24 h incubation), Replicate 1): 30%
% S-59 conversion ([4]; Control unit (S-59 added at end of ~24 h incubation), Replicate 2): 24%
S-59 concentration ([4]; Test unit (S-59 150 added before incubation), PAS/plasma platelets + K. pneumoniae, 22° C., T_0, Avg.): 152 µM
S-59 concentration ([4]; Test unit (S-59 added before incubation), platelets + K. pneumoniae, T_0, Replicate 1): 149 µM
S-59 concentration ([4]; Test unit (S-59 added before incubation), platelets + K. pneumoniae, T_0, Replicate 2): 155 µM
S-59 concentration ([4]; Test unit (S-59 added before incubation), platelets + K. pneumoniae, T_24h, Avg.): 153 µM
S-59 concentration ([4]; Test unit (S-59 added before incubation), T_24h, Replicate 1): 149 µM
S-59 concentration ([4]; Test unit (S-59 added before incubation), T_24h, Replicate 2): 157 µM
S-59 concentration ([4]; Test unit (S-59 added before incubation), T_Post-UVA, Avg.): 26 µM
S-59 concentration ([4]; Test unit (S-59 added before incubation), T_Post-UVA, Replicate 1): 27 µM
S-59 concentration ([4]; Test unit (S-59 added before incubation), T_Post-UVA, Replicate 2): 24 µM
% S-59 conversion ([4]; Test unit (S-59 added before incubation), Avg.): 17%
% S-59 conversion ([4]; Test unit (S-59 added before incubation), Replicate 1): 18%
% S-59 conversion ([4]; Test unit (S-59 added before incubation), Replicate 2): 15%
